Converted amounts (≈) assume the structure as drawn.

The first series relates to Acinetobacter. The series is described as follows: In vitro Minimum inhibitory concentration against Acinetobacter CMX 669. The series is classed as functional. As to conditions: Acinetobacter; read-out: MIC.
As to `C[C@H]1C[C@H](N)CN1c1nc2c(cc1F)c(=O)c(C(=O)O)cn2-c1ccc(F)cc1`, the MIC came out at 0.1 µg/mL (≈ 0.25 µM).

The subject of a further series is Staphylococcus epidermidis. As to the kind of experiment: In vitro Minimum inhibitory concentration against Staphylococcus epidermidis 3519. The series is classed as functional.
Details: not given
`C[C@H]1C[C@H](N)CN1c1nc2c(cc1F)c(=O)c(C(=O)O)cn2-c1ccc(F)cc1`: the minimal inhibitory concentration (MIC) was 0.1 µg/mL (≈ 0.25 µM).

Test system in a further series: not listed separately
As to the kind of experiment: Blood level was evaluated by a disk agar diffusion assay at 2.0 hr when administered at a peroral dose of 25 mg/kg. It is filed as ADME, organism-based. As to conditions: mouse, po, read-out: Blood level. The arrangement: dose 25 mg/kg, route oral.
`C[C@H]1C[C@H](N)CN1c1nc2c(cc1F)c(=O)c(C(=O)O)cn2-c1ccc(F)cc1`: the concentration at 2 h was found to be 1500 ng/mL.

The next series deals with Staphylococcus aureus. As to the kind of experiment: In vivo efficacy against Staphylococcus aureus 10649, in mouse protection tests when administered subcutaneously (sc). It is filed as functional.
Details: not given
In the case of `C[C@H]1C[C@H](N)CN1c1nc2c(cc1F)c(=O)c(C(=O)O)cn2-c1ccc(F)cc1`, the ED50 was 2 mg/kg.

The subject of another series is Staphylococcus aureus. As to the kind of experiment: In vitro Minimum inhibitory concentration against Staphylococcus aureus CMX 686B. The series is classed as functional.
Details: not given
As for `C[C@H]1C[C@H](N)CN1c1nc2c(cc1F)c(=O)c(C(=O)O)cn2-c1ccc(F)cc1`, the MIC came out at 0.05 µg/mL (≈ 0.125 µM).

Test system in a further series: not listed separately
As to the kind of experiment: Blood level was evaluated by a disk agar diffusion assay at 24.0 hr when administered at a peroral dose of 25 mg/kg. The arrangement: dose 25 mg/kg, route oral. It is filed as ADME, organism-based. As to conditions: mouse, po, read-out: Blood level.
Consider `C[C@H]1C[C@H](N)CN1c1nc2c(cc1F)c(=O)c(C(=O)O)cn2-c1ccc(F)cc1`, for which the concentration at 24 h was 100 ng/mL.

Another series relates to Klebsiella pneumoniae. As to the kind of experiment: In vitro Minimum inhibitory concentration against Klebsiella pneumoniae 8045. It is filed as functional.
Details: not given
Regarding `C[C@H]1C[C@H](N)CN1c1nc2c(cc1F)c(=O)c(C(=O)O)cn2-c1ccc(F)cc1`, the MIC came out at 0.05 µg/mL (≈ 0.125 µM).

Test system in another series: not listed separately
The series is described as follows: Blood level was evaluated by a disk agar diffusion assay at 0.5 hr when administered at a peroral dose of 25 mg/kg. The series is classed as ADME, organism-based. The arrangement: dose 25 mg/kg, route oral. As to conditions: mouse, po, read-out: Blood level.
As to `C[C@H]1C[C@H](N)CN1c1nc2c(cc1F)c(=O)c(C(=O)O)cn2-c1ccc(F)cc1`, the concentration at 0.5 h stood at 2400 ng/mL.

Another series has as its system Streptococcus agalactiae. As to the kind of experiment: In vitro Minimum inhibitory concentration against Streptococcus agalactiae CMX 508.
Details: not given
It is filed as functional.
The compound `C[C@H]1C[C@H](N)CN1c1nc2c(cc1F)c(=O)c(C(=O)O)cn2-c1ccc(F)cc1` came in with an MIC of 0.78 µg/mL (≈ 1.95 µM).

The next series deals with Streptococcus pyogenes. The series is described as follows: In vitro Minimum inhibitory concentration against Streptococcus pyogenes 930. The series is classed as functional.
Details: not given
Compound `C[C@H]1C[C@H](N)CN1c1nc2c(cc1F)c(=O)c(C(=O)O)cn2-c1ccc(F)cc1` displayed an MIC of 0.39 µg/mL (≈ 0.974 µM).

The test system of another series is Staphylococcus aureus. The series is described as follows: In vivo efficacy against Staphylococcus aureus 10649, in mouse protection tests when administered perorally (po). It is filed as functional.
Details: not given
Regarding `C[C@H]1C[C@H](N)CN1c1nc2c(cc1F)c(=O)c(C(=O)O)cn2-c1ccc(F)cc1`, it took a dose of 5.7 mg/kg to reach the 50% effect level (ED50).

The test system of the next series is Staphylococcus aureus. The series is described as follows: In vitro Minimum inhibitory concentration against Staphylococcus aureus A5177. It is filed as functional.
Details: not given
On to `C[C@H]1C[C@H](N)CN1c1nc2c(cc1F)c(=O)c(C(=O)O)cn2-c1ccc(F)cc1`, for which the minimum inhibitory concentration (MIC) is 0.1 µg/mL (≈ 0.25 µM).

In the next series the test system is Escherichia coli. As to the kind of experiment: In vitro Minimum inhibitory concentration against Escherichia coli Juhl. It is filed as functional.
Details: not given
As to `C[C@H]1C[C@H](N)CN1c1nc2c(cc1F)c(=O)c(C(=O)O)cn2-c1ccc(F)cc1`, the MIC came to 0.05 µg/mL (≈ 0.125 µM).

Test system in the next series: not listed separately
As to the kind of experiment: Blood level was evaluated by a disk agar diffusion assay at 6.0 hr when administered at a peroral dose of 25 mg/kg. As to conditions: mouse, po, read-out: Blood level. The arrangement: dose 25 mg/kg, route oral. The series is classed as ADME, organism-based.
For `C[C@H]1C[C@H](N)CN1c1nc2c(cc1F)c(=O)c(C(=O)O)cn2-c1ccc(F)cc1`, the concentration at 6 h is 300 ng/mL.

Another series concerns Staphylococcus aureus. The series is described as follows: In vitro Minimum inhibitory concentration against Staphylococcus aureus 45.
Details: not given
It is filed as functional.
In the case of `C[C@H]1C[C@H](N)CN1c1nc2c(cc1F)c(=O)c(C(=O)O)cn2-c1ccc(F)cc1`, the MIC is 0.1 µg/mL (≈ 0.25 µM).

The test system of a further series is Pseudomonas aeruginosa. As to the kind of experiment: In vitro Minimum inhibitory concentration against Pseudomonas aeruginosa K799/WT.
Details: not given
It is filed as functional.
As to `C[C@H]1C[C@H](N)CN1c1nc2c(cc1F)c(=O)c(C(=O)O)cn2-c1ccc(F)cc1`, the minimal inhibitory concentration (MIC) was 0.39 µg/mL (≈ 0.974 µM).

The subject of the next series is Pseudomonas aeruginosa. As to the kind of experiment: In vitro Minimum inhibitory concentration against Pseudomonas aeruginosa 5007.
Details: not given
The series is classed as functional.
For the compound `C[C@H]1C[C@H](N)CN1c1nc2c(cc1F)c(=O)c(C(=O)O)cn2-c1ccc(F)cc1`, the MIC came to 0.39 µg/mL (≈ 0.974 µM).

In another series the test system is Streptococcus equinus. The series is described as follows: In vitro Minimum inhibitory concentration against Streptococcus bovis A5169.
Details: not given
It is filed as functional.
The compound `C[C@H]1C[C@H](N)CN1c1nc2c(cc1F)c(=O)c(C(=O)O)cn2-c1ccc(F)cc1` yielded an MIC of 0.78 µg/mL (≈ 1.95 µM).

Test system in the next series: not listed separately
As to the kind of experiment: Blood level was evaluated by a disk agar diffusion assay at 3.0 hh when administered at a peroral dose of 25 mg/kg. As to conditions: mouse, po, read-out: Blood level. It is filed as ADME, organism-based. Set-up: dose 25 mg/kg, route oral.
In the case of `C[C@H]1C[C@H](N)CN1c1nc2c(cc1F)c(=O)c(C(=O)O)cn2-c1ccc(F)cc1`, the concentration at 3 h worked out at 800 ng/mL.

Test system in the next series: not listed separately
The series is described as follows: Blood level was evaluated by a disk agar diffusion assay at 1.0 hr when administered at a peroral dose of 25 mg/kg. Set-up: dose 25 mg/kg, route oral. The note with it: mouse, po, read-out: Blood level. It is filed as ADME, organism-based.
Regarding `C[C@H]1C[C@H](N)CN1c1nc2c(cc1F)c(=O)c(C(=O)O)cn2-c1ccc(F)cc1`, the concentration at 1 h came out at 1900 ng/mL.

Another series relates to Enterococcus faecium. The series is described as follows: In vitro Minimum inhibitory concentration against Streptococcus faecium ATCC 8043. The series is classed as functional.
Details: not given
Compound `C[C@H]1C[C@H](N)CN1c1nc2c(cc1F)c(=O)c(C(=O)O)cn2-c1ccc(F)cc1` yielded an MIC of 0.39 µg/mL (≈ 0.974 µM).

For a further series, the system named is Staphylococcus aureus. The series is described as follows: In vitro Minimum inhibitory concentration against Staphylococcus aureus ATCC 6538P. It is filed as functional.
Details: not given
On to `C[C@H]1C[C@H](N)CN1c1nc2c(cc1F)c(=O)c(C(=O)O)cn2-c1ccc(F)cc1`, for which the lowest concentration to inhibit growth (MIC) was 0.05 µg/mL (≈ 0.125 µM).

The values are drawn from ChEMBL document CHEMBL1124182, “Design, synthesis, and properties of (4S)-7-(4-amino-2-substituted-pyrrolidin-1-yl)quinolone-3-carboxylic acids” (J Med Chem, 1988).
